{
  "source": "paper PMC2065875",
  "about": "“A Point Mutation in a Herpesvirus Polymerase Determines Neuropathogenicity” (PLoS Pathogens, 2007)",
  "key": {"[1]": {"biological_target": "T1, EHV-1 Pol D752 + pORF18 (viral DNA polymerase holoenzyme) (Equine herpesvirus type 1 (strain AB4P), UniProt P28858)", "T1 construct": "gene 30; Pol (D752) from pTM1-ORF30 made by in vitro transcription-translation (TNT T7 coupled reticulocyte lysate, not purified); pORF18 purified, baculovirus-expressed; with DNA polymerase processivity factor", "test": "[3H]dTTP incorporation into poly(dA)-oligo(dT), in vitro translated Pol", "type": "biochemical", "conditions": "poly(dA)-oligo(dT) template, 4 μl translated Pol plus 200 fmol pORF18 in 20 μl, 0.5% DMSO"}, "[2]": {"biological_target": "T2, EHV-1 Pol D752 + pORF18 (viral DNA polymerase holoenzyme) (Equine herpesvirus type 1 (strain AB4P), UniProt P28858, D752N)", "T2 construct": "gene 30", "T2 sequence (P28858 whole entry, stated change not applied)": "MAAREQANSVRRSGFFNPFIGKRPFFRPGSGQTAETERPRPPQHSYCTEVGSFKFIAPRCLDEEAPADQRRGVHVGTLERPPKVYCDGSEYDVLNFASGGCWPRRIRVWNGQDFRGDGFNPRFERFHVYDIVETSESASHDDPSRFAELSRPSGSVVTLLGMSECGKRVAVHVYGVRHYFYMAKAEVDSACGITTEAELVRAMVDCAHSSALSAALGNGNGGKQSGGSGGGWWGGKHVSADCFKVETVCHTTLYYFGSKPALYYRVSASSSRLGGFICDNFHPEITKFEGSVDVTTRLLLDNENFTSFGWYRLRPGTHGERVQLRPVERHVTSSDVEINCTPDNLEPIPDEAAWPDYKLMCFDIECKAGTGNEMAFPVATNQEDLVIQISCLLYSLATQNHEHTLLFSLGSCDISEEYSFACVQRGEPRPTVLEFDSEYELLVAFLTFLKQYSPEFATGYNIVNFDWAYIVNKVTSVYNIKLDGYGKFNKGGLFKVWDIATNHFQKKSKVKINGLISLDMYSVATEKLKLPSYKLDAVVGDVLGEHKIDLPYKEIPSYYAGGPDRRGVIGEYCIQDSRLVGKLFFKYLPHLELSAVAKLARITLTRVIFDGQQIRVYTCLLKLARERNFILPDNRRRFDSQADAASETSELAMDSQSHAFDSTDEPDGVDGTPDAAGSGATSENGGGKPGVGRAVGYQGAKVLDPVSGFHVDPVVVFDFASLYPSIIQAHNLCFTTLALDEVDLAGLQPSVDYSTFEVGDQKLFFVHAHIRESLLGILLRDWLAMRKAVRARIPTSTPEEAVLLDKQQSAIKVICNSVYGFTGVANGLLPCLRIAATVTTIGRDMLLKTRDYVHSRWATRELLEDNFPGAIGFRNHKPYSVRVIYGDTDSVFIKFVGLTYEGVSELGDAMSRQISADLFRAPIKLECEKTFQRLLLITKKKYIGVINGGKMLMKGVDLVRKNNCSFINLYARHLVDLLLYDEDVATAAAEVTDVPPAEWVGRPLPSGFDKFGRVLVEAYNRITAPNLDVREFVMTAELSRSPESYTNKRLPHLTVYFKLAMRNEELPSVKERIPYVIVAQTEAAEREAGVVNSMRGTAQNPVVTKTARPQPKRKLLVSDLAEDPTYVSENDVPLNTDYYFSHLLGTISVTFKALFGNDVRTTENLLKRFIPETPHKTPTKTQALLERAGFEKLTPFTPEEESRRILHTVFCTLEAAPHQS", "T2 sequence (P28958 whole entry, stated change not applied, further chain)": "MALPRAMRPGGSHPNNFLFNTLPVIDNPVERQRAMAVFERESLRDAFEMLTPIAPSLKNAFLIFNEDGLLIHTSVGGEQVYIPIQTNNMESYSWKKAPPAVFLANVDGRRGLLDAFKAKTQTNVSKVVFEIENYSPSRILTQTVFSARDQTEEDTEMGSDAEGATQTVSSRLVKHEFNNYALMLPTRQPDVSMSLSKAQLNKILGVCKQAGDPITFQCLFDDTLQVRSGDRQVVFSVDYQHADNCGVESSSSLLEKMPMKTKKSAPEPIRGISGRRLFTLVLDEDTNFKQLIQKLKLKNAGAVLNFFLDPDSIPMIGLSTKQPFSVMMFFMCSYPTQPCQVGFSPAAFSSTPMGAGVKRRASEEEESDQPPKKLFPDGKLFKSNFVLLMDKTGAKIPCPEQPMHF", "conditions": "poly(dA)-oligo(dT) template, [3H]dTTP; 4 μl translated Pol plus 200 fmol pORF18 in 20 μl; 0.5% DMSO"}},
  "data": [
    {"substance": "aphidicolin", "values": [
      {"measurement": "IC50", "setting": "[1]", "value": 3.1, "unit": "µM"},
      {"measurement": "IC50", "setting": "[2]", "value": 0.9, "unit": "µM"}
    ]}
  ]
}
